This is an account of results in publication PMC1175996, “Guanine-nucleotide exchange on ribosome-bound elongation factor G initiates the translocation of tRNAs” (Journal of Biology, 2005).

The target in assay [1] is T1, EF-G (free elongation factor G) (Escherichia coli, UniProt P0A6M8).
T1 construct: gene fusA; purified EF-G, free in solution (no ribosome)
Put plainly: nitrocellulose filtration, chase of [3H]-GDP by purified unlabelled GTP. In kind it is binding. To be noted: read-out: KGTP.

Assay [2] concerns the target T1, EF-G (free elongation factor G). Put plainly: nitrocellulose filtration, Scatchard plot. In kind it is binding.
For assay [3], the target named is T2, EF-G on 70S ribosome complexes (preT / postTerm) (Escherichia coli, UniProt P0A6M8).
T2 construct: gene fusA
T2 sequence (P0A6M8 2-704, one chain of several): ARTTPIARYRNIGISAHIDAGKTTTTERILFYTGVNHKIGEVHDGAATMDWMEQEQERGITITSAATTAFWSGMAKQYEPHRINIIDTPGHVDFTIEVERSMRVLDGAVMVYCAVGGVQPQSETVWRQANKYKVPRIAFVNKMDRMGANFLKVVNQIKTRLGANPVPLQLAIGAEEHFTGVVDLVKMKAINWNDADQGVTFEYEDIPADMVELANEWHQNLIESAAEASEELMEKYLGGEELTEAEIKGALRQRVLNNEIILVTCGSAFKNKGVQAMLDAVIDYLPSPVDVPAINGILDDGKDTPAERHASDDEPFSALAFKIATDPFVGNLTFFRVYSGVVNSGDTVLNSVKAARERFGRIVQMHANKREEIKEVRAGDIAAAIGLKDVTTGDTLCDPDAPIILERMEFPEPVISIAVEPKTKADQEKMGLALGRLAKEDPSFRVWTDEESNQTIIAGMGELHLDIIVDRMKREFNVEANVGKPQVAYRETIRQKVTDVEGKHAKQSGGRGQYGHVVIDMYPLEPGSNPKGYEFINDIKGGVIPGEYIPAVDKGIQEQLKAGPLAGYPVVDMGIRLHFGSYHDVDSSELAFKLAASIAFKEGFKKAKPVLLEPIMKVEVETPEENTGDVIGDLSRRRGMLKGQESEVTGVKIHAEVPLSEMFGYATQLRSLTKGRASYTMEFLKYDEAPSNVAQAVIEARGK
Nature of the assay: translocation rate by RF2-dependent fMet-Ile release, EF-G recycling. The format is biochemical. As to conditions: read-out: I50.

The target in assay [4] is T2, EF-G on 70S ribosome complexes (preT / postTerm). Nature of the assay: nitrocellulose filtration of ribosome-bound EF-G•[3H]-GDPNP. The format is binding. To be noted: labelled compound; 2 μM EF-G; 92 nM postTerm or naked 70S ribosomes; 1 μM [3H]-GDPNP; 37°C.

The structures appear in SMILES notation.

T1 sequence (P0A6M8 2-704): as the sequence (P0A6M8 2-704, one chain of several) above

Regarding `Nc1nc2c(ncn2[C@@H]2O[C@H](COP(=O)(O)OP(=O)(O)OP(=O)(O)O)[C@@H](O)[C@H]2O)c(=O)[nH]1` [GTP], the Kd in assay [1] is over 600 µM.

`Nc1nc2c(ncn2[C@@H]2O[C@H](COP(=O)(O)OP(=O)(O)O)[C@@H](O)[C@H]2O)c(=O)[nH]1` [GDP] displayed a Kd in assay [2] of about 9 µM. Also, the IC50 in assay [3] worked out at 250 µM.

On to `Nc1nc2c(ncn2[C@@H]2O[C@H](COP(=O)(O)OP(=O)(O)NP(=O)(O)O)[C@@H](O)[C@H]2O)c(=O)[nH]1` [GDPNP], for which the “nitrocellulose filtration of ribosome-bound EF-G•[3H]-GDPNP” value in assay [4] was “EF-G, bound to either type of ribosome, had much higher affinity for GDPNP than for GDP”.
